Read-outs that look alike come from different tables or passages of the source. Positions of bridges follow the written chain, without caps; N, C: chain ends. Residues, ends and D or L forms follow the SMILES beside them.
Legend:
[1] = Cytotoxicity in CEM-SS cells (XTT assay); assay type: cell-based; details: human, concentration yielding 50% of viable cells of untreated control, read-out: cytotoxicity IC₅₀
Description: (§2) The antiviral effect is expressed as the inhibitory concentration of a compound which reduces the number of viruses of the infected culture to 50% of that of the drug - untreated, control culture (IC₅₀). The cytotoxicity is expressed as the concentration of a compound which yields 50% of the number of viable cells of the untreated control cultures (IC₅₀).

CEM-SS cells [2] = test: Cytotoxicity in CEM-SS cells (XTT assay); assay type: cell-based; details: result in words
Description: as §2

HIV-1 IIIb = test: Anti-HIV activity, XTT assay in CEM-SS cells; assay type: cell-based, human immunodeficiency virus; details: HIV-1 IIIb strain, read-out: IC₅₀
Description: as §2

[3] = system: herpes simplex virus type 1 (HSV-1); test: Anti-HSV activity, inhibition of virus-induced cytopathic effect in Vero cells; assay type: cell-based; details: HSV-1 KOS strain, 72 hours at 37°C, 50% inhibition of cytopathic effect
Description: (§1) The in vitro antiviral activity of BU-4628V was assessed against the herpes simplex virus type 1 (HSV-1) using the KOS strain. The assay was done according to the reported protocol of C. McLaren et al. in Antiviral Research, 3, 223-234, (1986) with minor modification. Briefly, 50 µl of Eagle's MEM medium containing BU-4628V and then 200 µl of the Vero cell suspension (2 X 10⁴ cells/200 µl) were added to a well of a 96-well microtiter plate. To the well, 50µl of medium containing approximately 30 times of the 50% tissue culture infectious dose (50% TCID) of virus was added. In a parallel experiment, the same set of cells without virus infection was prepared, which was for the determination of cytotoxicity of the sample. After 72 hours incubation at 37°C, the inhibition degree of virus-induced cytopathic effect and cytotoxicity by the sample were determined, respectively. The ID₅₀ is expressed as the concentration of a compound showing 50% growth inhibition of the cytopathic effect and the TD₅₀ as the concentration of a compound showing 50% growth inhibition of the cells in the absence of virus. Acyclovir was used as the reference compound for anti-HSV activity in the assay.

HIV-1 RF = test: Anti-HIV activity, XTT assay in CEM-SS cells; assay type: cell-based, human immunodeficiency virus; details: HIV-1 RF strain, read-out: IC₅₀
Description: as §2

[4] = Cytotoxicity in Vero cells without virus infection; assay type: cell-based; details: Vero cells in the absence of virus, 72 hours at 37°C, 50% growth inhibition, read-out: TD₅₀
Description: as §1

S. typhi 901 = assay type: cell-based; details: 901, 18 h, pH 7
HIV-2 CBL-20 = test: Anti-HIV activity, XTT assay in CEM-SS cells; assay type: cell-based, human immunodeficiency virus; details: HIV-2 CBL-20 strain, read-out: IC₅₀
Description: The antiviral effect is expressed as the inhibitory concentration of a compound which reduces the number of viruses of the infected culture to 50% of that of the drug - untreated, control culture (IC₅₀).

Solubility in solvents = assay type: physicochemical
Description: The antiviral antibiotic BU-4628V was isolated as a white amorphous powder.

[5] = system: human immunodeficiency virus; test: Anti-HIV activity, XTT assay in CEM-SS cells (strain not stated); assay type: cell-based; details: Human immunodeficiency virus 1, read-out: IC₅₀
CEM-SS cells [6] = system: CEM-SS cells
Description: as §2

Vero cell = test: Cytotoxicity in Vero cells without virus infection; assay type: cell-based; details: Vero cells in the absence of virus, 72 hours at 37°C; 50% growth inhibition
Description: as §1

## CC[C@H](C)[C@@H]1NC(=O)CNC(=O)[C@H](CC(C)C)NC(=O)[C@@H]2CSSC[C@@H]3NC(=O)CNC(=O)[C@H](C)NC(=O)[C@H](Cc4ccccc4)NC(=O)[C@H](CC(=O)N2)NC(=O)[C@H](CC(N)=O)NC(=O)[C@H](CSSC[C@@H](C(=O)N[C@@H](Cc2ccccc2)C(=O)N[C@@H](Cc2c[nH]c4ccccc24)C(=O)O)NC(=O)[C@H](C(C)C)NC(=O)[C@H]([C@@H](C)CC)NC(=O)[C@H](C)NC(=O)[C@H](Cc2ccc(O)cc2)NC(=O)CNC3=O)NC(=O)[C@H](CO)NC(=O)CNC1=O [BU-4628V] (CLGIGSCNDFAGCGYAIVCFW-OH; disulfide 1-13, 7-19; lactam N-9; C-terminus assumed)
[1]
  CC50: 26 to 46 µM
CEM-SS cells [2]
  cytotoxicity: very weak cytotoxicity
HIV-1 IIIb
  IC50: 920 nM
[3]
  ID₅₀: 27 µg/mL
HIV-1 RF
  IC50: 140 nM
[4]
  CC50 at 72 h: > 100 µg/mL
S. typhi 901
  MIC: >100 µg/mL
HIV-2 CBL-20
  IC50: 320 nM
Solubility in solvents; in alkaline water
  solubility: slightly soluble
Solubility in solvents; in benzene
  solubility: insoluble
Solubility in solvents; in chloroform
  solubility: insoluble
Solubility in solvents; in dimethyl sulfoxide
  solubility: soluble
Solubility in solvents; in dimethylformamide
  solubility: soluble
Solubility in solvents; in ethanol
  solubility: soluble
Solubility in solvents; in ethyl acetate
  solubility: insoluble
Solubility in solvents; in methanol
  solubility: soluble
Solubility in solvents; in n-hexane
  solubility: insoluble
Solubility in solvents; in petroleum ether
  solubility: insoluble
Solubility in solvents; in water
  solubility: insoluble

## O=c1[nH]cnc2c1ncn2[C@H]1CC[C@@H](CO)O1 [ddI, 2',3'-Dideoxyinosine]
[5]
  IC50: 1000 to 2000 nM
CEM-SS cells [6]
  cytotoxicity: very weak cytotoxicity

## Nc1nc2c(ncn2COCCO)c(=O)[nH]1 [Acyclovir]
[3]
  ID₅₀: 0.23 µg/mL
Vero cell
  TD₅₀: >100 µg/mL
